SMILES strings stand for the structures. Read-outs that look alike come from different tables or passages of the source.

The subject of one experiment is platelet. The experiment can be described thus: Test Method B: inhibition of platelet aggregation in platelet rich plasma. The following applies: Oryctolagus cuniculus, rabbit PRP, 37° C. Format: cell-based. As to the method: Platelet rich plasma (PRP) which contains 6.5-7.5×10^8 platelet/ml was prepared from rabbit blood. To the 200 ul of PRP, 5 μl of calcium chloride (1 mM) and 50 μl of pH 7.4 Tris-acetate solution (5 mM) containing 120 mM NaCl and test compound were added successively, and then stirred for 2 min. at 37° C. To the solution, 5 μl of adenosine diphosphate (ADP) (2.5 μM) or collagen (2.5 ug/ml) was added as an aggregation inducer. Aggregation was measured by using an aggregometer (NKK HEMA TRACER 1).

In a further experiment the test system is blood pressure. The experiment can be described thus: Test method A: antihypertensive activity, oral, in uninephrectomized DOCA/saline rats. Conditions: orally, DOCA rats, mean arterial pressure. Format: in vivo, rat (Wister). As for the experimental part: Five-week old male Wister rats were uninephrectomized under anesthesia. Deoxycorticosterone […] (DOCA) (30 mg/kg), suspended in peanut oil, was injected subcutaneously twice a week and 1% saline was substituted for the drinking water. Animals with mean blood pressure 150-200 mmHg were used for experiment between 5 and 7 weeks after surgery.
The test compounds were administered orally.
Blood pressure was measured at the femoral artery by means of a pressure transducer and recorded as electrically integrated values of mean arterial pressure.
a: The test compound were administered orally in a dose of 1 mg/kg.
b: The test compound were administered orally in dose of 0.1 mg/kg.

The subject of another experiment is ethanol ulcer. The experiment can be described thus: Test methods C: ethanol ulcer (antiulcer activity). Format: in vivo, rat (Sprague-Dawley). The following applies: 32 mg/kg orally, 30 minutes before absolute ethanol (5 ml/kg). As to the method: Five male Sprague-Dawley rats, aged 7 weeks and weighing about 200 g, were used per group for the study on ethanol ulcer after the fast for 24 hours.
Test compound was suspended in 0.1% methylcellulose aqueous solution, and the suspension (5 ml/kg) was orally given to each rat.
The control group was given a vehicle, i.e. 0.1% methylcellulose aqueous solution (5 ml/kg), alone in the same way.
Absolute ethanol (5 ml/kg) was orally administered 30 minutes after dosing with test compound, and one hour later, the rats were sacrificed and their stomachs were removed. The area of ulcers of each rat was measured. The mean area (mm^2) in the medicated group was compared with that in the control group.

[1] abbreviates: ADP (2.5 μM) as aggregation inducer, read-out: ID50 ADP (platelet aggregation).
[2] abbreviates: collagen (2.5 ug/ml) as aggregation inducer, read-out: ID50 Collagen (platelet aggregation).

Turning to `CNC(=O)Nc1ccc(C2=NNC(=O)NC2C)cc1` (stereo not shown) [Example 6, 6-[4-(3-methylureido)phenyl]-5-methyl-4,5-dihydro-1,2,4-triazin-3(2H)-one], the values for the IC50 in the experiment on platelet (setting [1]) and in the experiment with platelet (setting [2]) were 740 nM and 410 nM, respectively. The “Effect Max (mean ratio of maximum decrease of blood pressure)” value with blood pressure (dose a: 1 mg/kg) amounted to 43.1%; in the experiment on blood pressure (dose b: 0.1 mg/kg) it was 6.6%.
Consider `CC1NC(=O)NN=C1c1ccc(NC(=O)C2CC2)cc1` (stereo not shown) [Example 24-(10), 6-(4-Cyclopropanecarbonylaminophenyl)-5-methyl-4,5-dihydro-1,2,4-triazin-3(2H)-one], for which the IC50 in the experiment on platelet (setting [1]) turned out to be 34 nM; in the experiment with platelet (setting [2]), 3.1 nM. Further, the “Effect Max (mean ratio of maximum decrease of blood pressure)” value in the experiment on blood pressure (dose b: 0.1 mg/kg) was found to be 41.1%.
With `CCOC(=O)Nc1ccc(C2=NNC(=O)NC2C)cc1` (stereo not shown) [Example 24-(4), 6-(4-Ethoxycarbonylaminophenyl)-5-methyl-4,5-dihydro-1,2,4-triazin-3(2H)-one], the IC50 was found to be 380 nM with platelet (setting [1]) and 69 nM with platelet (setting [2]). Also, the “Effect Max (mean ratio of maximum decrease of blood pressure)” value turned out to be 54.5% with blood pressure (dose a: 1 mg/kg) and 28.6% with blood pressure (dose b: 0.1 mg/kg).
The corresponding values for `CC(=O)Nc1ccc(C2=NNC(=O)NC2C)cc1` (stereo not shown) [Example 1-(3), 6-(4-acetamidophenyl)-5-methyl-4,5-dihydro-1,2,4-triazin-3(2H)-one] are 620 nM, 220 nM, 48.9% and 19.2%.
For `CC(=O)Nc1ccc(C2=NNC(=S)NC2C)cc1` (stereo not shown) [Example 23-(3), 6-(4-acetamidophenyl)-5-methyl-4,5-dihydro-1,2,4-triazin-3(2H)-thione], the “Effect (mean ulcer area compared with control group)” value with ethanol ulcer came out at 87.0%.
